According to patent publication US20070128217A1 (priority 2003, published 2007):

How the values were obtained:
[1] = test system: antibodies in sera from SARS patients (sera 1a, 1b, 2, 6, 37, 62, London, SARS-yellow, SARS-green); assay type: binding, human; parameters: Binding of serum 6 to linear peptides of protein X1 of SARS-CoV Urbani / Binding of serum 37 to linear peptides of protein X1 of SARS-CoV Urbani / Binding of serum 6 to looped/cyclic peptide (PEPSCAN-ELISA) / Binding of serum 37 to looped/cyclic peptide (PEPSCAN-ELISA) / Binding of serum 37 to looped/cyclic peptides of protein X1 of SARS-CoV Urbani / Binding of serum 6 to linear peptides of protein X2 / Binding of serum 37 to linear peptides of protein X2 / Binding of serum 37 to looped/cyclic peptides of protein X2 of SARS-CoV Urbani / Binding of serum 6 to linear peptides of protein M of SARS-CoV Urbani / Binding of serum 37 to linear peptides of protein M of SARS-CoV Urbani / Binding of serum 6 to looped/cyclic peptides of protein M of SARS-CoV Urbani / Binding of serum 37 to looped/cyclic peptides of protein M of SARS-CoV Urbani / Binding of serum 6 to linear peptides of protein X3 of SARS-CoV Urbani / Binding of serum 37 to linear peptides of protein X3 of SARS-CoV Urbani / Binding of serum 37 to looped/cyclic peptides of protein X3 of SARS-CoV Urbani / Binding of serum 6 to linear peptides of protein X4 of SARS-CoV Urbani / Binding of serum 37 to linear peptides of protein X4 of SARS-CoV Urbani / Binding of serum 37 to looped/cyclic peptides of protein X4 of SARS-CoV Urbani / Binding of serum 6 to linear peptides of protein X5 of SARS-CoV Urbani / Binding of serum 37 to linear peptides of protein X5 of SARS-CoV Urbani / Binding of serum 37 to looped/cyclic peptides of protein X5 of SARS-CoV Urbani / Binding of serum 6 to linear peptides of protein N of SARS-CoV Urbani / Binding of serum 37 to linear peptides of protein N of SARS-CoV Urbani / Binding of serum 6 to linear peptide (PEPSCAN-ELISA) / Binding of serum 1a to looped/cyclic peptides of protein N of SARS-CoV Urbani / Binding of serum 1b to looped/cyclic peptides of protein N of SARS-CoV Urbani / Binding of serum 2 to looped/cyclic peptides of protein N of SARS-CoV Urbani / Binding of serum 6 to looped/cyclic peptides of protein N of SARS-CoV Urbani / Binding of serum 37 to looped/cyclic peptides of protein N of SARS-CoV Urbani / Binding of serum 62 to looped/cyclic peptides of protein N of SARS-CoV Urbani / Binding of serum London to looped/cyclic peptides of protein N of SARS-CoV Urbani / Binding of serum SARS-green to looped/cyclic peptides of protein N of SARS-CoV Urbani: unit not given here
[2] = test system: control sera (pooled serum of ten healthy LUMC hospital workers; commercial negative donor pooled serum from the Dutch bloodbank); assay type: binding, human; parameters: Binding of Control serum LUMC to linear peptides / Binding of Control serum Blood-bank to linear peptides / Binding of Control serum LUMC to looped peptides / Binding of Control Serum Blood-Bank to Looped peptides / Binding of Control serum LUMC to linear peptides of the protein M of SARS-CoV Urbani / Binding of Control serum Blood-bank to linear peptides of the protein M of SARS-CoV Urbani / Binding of Control serum LUMC to looped peptides of the protein M of SARS-CoV Urbani / Binding of Control Serum Blood-Bank to Looped peptides of the protein M of SARS-CoV Urbani: unit not given here
[3] = test system: rabbit serum obtained by immunizing a rabbit with the SARS-CoV strain Frankfurt 1; assay type: binding; parameters: Binding of a rabbit serum to linear peptides / Binding of a rabbit serum to looped peptides / Rabbit serum linear peptides / Rabbit serum looped peptides / Binding of a rabbit serum to linear peptides of protein N of SARS-CoV Urbani (Rabbit serum linear peptides) / Binding of a rabbit serum to looped/cyclic peptides of protein N of SARS-CoV Urbani (Rabbit serum looped peptides): unit not given here
[4] = test system: recombinant human anti-SARS-CoV antibody 03-018; assay type: binding; parameters: Binding of antibody 03-018 to linear peptides of the N protein of SARS-CoV Urbani / Binding of antibody 03-018 to looped/cyclic peptides of the N protein of SARS-CoV Urbani: unit not given here

LRFPRGQGVPINTNS
Binding of serum 1a to linear peptides of protein N of SARS-CoV Urbani [1]: 0.2
Binding of serum 1a to looped/cyclic peptides of protein N of SARS-CoV Urbani [1]: 0.3
Binding of serum 1b to linear peptides of protein N of SARS-CoV Urbani [1]: 0.1
Binding of serum 1b to looped/cyclic peptides of protein N of SARS-CoV Urbani [1]: 0.2
Binding of serum 2 to linear peptides of protein N of SARS-CoV Urbani [1]: 0.3
Binding of serum 2 to looped/cyclic peptides of protein N of SARS-CoV Urbani [1]: 0.4
Binding of serum 6 to linear peptides of protein N of SARS-CoV Urbani [1]: 0.2
Binding of serum 6 to looped/cyclic peptides of protein N of SARS-CoV Urbani [1]: 0.2
Binding of serum 37 to linear peptides of protein N of SARS-CoV Urbani [1]: 0.6
Binding of serum 37 to looped/cyclic peptides of protein N of SARS-CoV Urbani [1]: 0.6
Binding of serum 62 to linear peptides of protein N of SARS-CoV Urbani [1]: 0.6
Binding of serum 62 to looped/cyclic peptides of protein N of SARS-CoV Urbani [1]: 0.4
Binding of serum London to linear peptides of protein N of SARS-CoV Urbani [1]: 0.5
Binding of serum London to looped/cyclic peptides of protein N of SARS-CoV Urbani [1]: 0.4
Binding of serum SARS-green to linear peptides of protein N of SARS-CoV Urbani [1]: 0.4
Binding of serum SARS-green to looped/cyclic peptides of protein N of SARS-CoV Urbani [1]: 0.6
Binding of serum SARS-yellow to linear peptides of protein N of SARS-CoV Urbani [1]: 0.5
Binding of serum SARS-yellow to looped/cyclic peptides of protein N of SARS-CoV Urbani [1]: 0.4
Binding of Control Serum Blood-Bank to Looped peptides [2]: 0.6
Binding of Control serum Blood-bank to linear peptides [2]: 0.7
Binding of Control serum LUMC to linear peptides [2]: 0.7
Binding of Control serum LUMC to looped peptides [2]: 0.6
Binding of a rabbit serum to linear peptides of protein N of SARS-CoV Urbani (Rabbit serum linear peptides) [3]: 0.2
Binding of a rabbit serum to looped/cyclic peptides of protein N of SARS-CoV Urbani (Rabbit serum looped peptides) [3]: 0.6
Binding of antibody 03-018 to linear peptides of the N protein of SARS-CoV Urbani [4]: 0.1
Binding of antibody 03-018 to looped/cyclic peptides of the N protein of SARS-CoV Urbani [4]: 0.2

LSPRWYFYYLGTGPE
Binding of serum 1a to linear peptides of protein N of SARS-CoV Urbani [1]: 0.3
Binding of serum 1a to looped/cyclic peptides of protein N of SARS-CoV Urbani [1]: 0.3
Binding of serum 1b to linear peptides of protein N of SARS-CoV Urbani [1]: 0.3
Binding of serum 1b to looped/cyclic peptides of protein N of SARS-CoV Urbani [1]: 0.3
Binding of serum 2 to linear peptides of protein N of SARS-CoV Urbani [1]: 0.2
Binding of serum 2 to looped/cyclic peptides of protein N of SARS-CoV Urbani [1]: 0.5
Binding of serum 6 to linear peptides of protein N of SARS-CoV Urbani [1]: 0.2
Binding of serum 6 to looped/cyclic peptides of protein N of SARS-CoV Urbani [1]: 0.2
Binding of serum 37 to linear peptides of protein N of SARS-CoV Urbani [1]: 1.0
Binding of serum 37 to looped/cyclic peptides of protein N of SARS-CoV Urbani [1]: 0.8
Binding of serum 62 to linear peptides of protein N of SARS-CoV Urbani [1]: 0.9
Binding of serum 62 to looped/cyclic peptides of protein N of SARS-CoV Urbani [1]: 0.8
Binding of serum London to linear peptides of protein N of SARS-CoV Urbani [1]: 0.5
Binding of serum London to looped/cyclic peptides of protein N of SARS-CoV Urbani [1]: 0.3
Binding of serum SARS-green to linear peptides of protein N of SARS-CoV Urbani [1]: 0.9
Binding of serum SARS-green to looped/cyclic peptides of protein N of SARS-CoV Urbani [1]: 0.6
Binding of serum SARS-yellow to linear peptides of protein N of SARS-CoV Urbani [1]: 0.6
Binding of serum SARS-yellow to looped/cyclic peptides of protein N of SARS-CoV Urbani [1]: 0.5
Binding of Control Serum Blood-Bank to Looped peptides [2]: 0.5
Binding of Control serum Blood-bank to linear peptides [2]: 0.7
Binding of Control serum LUMC to linear peptides [2]: 0.8
Binding of Control serum LUMC to looped peptides [2]: 0.6
Binding of a rabbit serum to linear peptides of protein N of SARS-CoV Urbani (Rabbit serum linear peptides) [3]: 0.2
Binding of a rabbit serum to looped/cyclic peptides of protein N of SARS-CoV Urbani (Rabbit serum looped peptides) [3]: 1.1
Binding of antibody 03-018 to linear peptides of the N protein of SARS-CoV Urbani [4]: 0.1
Binding of antibody 03-018 to looped/cyclic peptides of the N protein of SARS-CoV Urbani [4]: 0.2

MDDFSRQLQNSMSGA
Binding of serum 1a to linear peptides of protein N of SARS-CoV Urbani [1]: 0.2
Binding of serum 1a to looped/cyclic peptides of protein N of SARS-CoV Urbani [1]: 0.4
Binding of serum 1b to linear peptides of protein N of SARS-CoV Urbani [1]: 0.1
Binding of serum 1b to looped/cyclic peptides of protein N of SARS-CoV Urbani [1]: 0.1
Binding of serum 2 to linear peptides of protein N of SARS-CoV Urbani [1]: 0.3
Binding of serum 2 to looped/cyclic peptides of protein N of SARS-CoV Urbani [1]: 0.4
Binding of serum 6 to linear peptides of protein N of SARS-CoV Urbani [1]: 0.2
Binding of serum 6 to looped/cyclic peptides of protein N of SARS-CoV Urbani [1]: 0.1
Binding of serum 37 to linear peptides of protein N of SARS-CoV Urbani [1]: 0.8
Binding of serum 37 to looped/cyclic peptides of protein N of SARS-CoV Urbani [1]: 0.4
Binding of serum 62 to linear peptides of protein N of SARS-CoV Urbani [1]: 0.7
Binding of serum 62 to looped/cyclic peptides of protein N of SARS-CoV Urbani [1]: 0.4
Binding of serum London to linear peptides of protein N of SARS-CoV Urbani [1]: 0.8
Binding of serum London to looped/cyclic peptides of protein N of SARS-CoV Urbani [1]: 0.3
Binding of serum SARS-green to linear peptides of protein N of SARS-CoV Urbani [1]: 0.6
Binding of serum SARS-green to looped/cyclic peptides of protein N of SARS-CoV Urbani [1]: 0.3
Binding of serum SARS-yellow to linear peptides of protein N of SARS-CoV Urbani [1]: 0.7
Binding of serum SARS-yellow to looped/cyclic peptides of protein N of SARS-CoV Urbani [1]: 0.2
Control Serum Blood-Bank Looped peptides [2]: 0.5
Control serum Blood-bank linear peptides [2]: 1.0
Control serum LUMC linear peptides [2]: 0.7
Control serum LUMC looped peptides [2]: 0.5
Binding of a rabbit serum to linear peptides of protein N of SARS-CoV Urbani (Rabbit serum linear peptides) [3]: 0.2
Binding of a rabbit serum to looped/cyclic peptides of protein N of SARS-CoV Urbani (Rabbit serum looped peptides) [3]: 0.4
Binding of antibody 03-018 to linear peptides of the N protein of SARS-CoV Urbani [4]: 0.2
Binding of antibody 03-018 to looped/cyclic peptides of the N protein of SARS-CoV Urbani [4]: 0.2
